Results taken from article PMC6843445, “Pharmacokinetic Properties of Fluorescently Labelled Hydroxypropyl-Beta-Cyclodextrin” (Biomolecules, 2019).

Tested on: HUVECs
Experiment: FITC-HPBCD uptake, flow cytometry
Format: cell-based, Human
Method: Human umbilical vein endothelial cells (HUVECs) were removed from umbilical veins by exposure to dispase (0.2% in Hank’s balanced salt solution) and cultured in gelatin-coated flasks in medium 199 containing 15% foetal bovine serum (FBS), antibiotics, L-glutamine, sodium pyruvate and endothelial cell growth supplement from bovine pituitary. For the fluorescent microscopic experiments, cells were seeded onto gelatin-coated round glass coverslips and maintained in medium until the treatments.
In the flow cytometry experiments, HUVECs were treated with 50 µM FITC-HPBCD for 30 min at 37 °C and washed five times with ice-cold HBSS. Half of the samples were incubated for a further 60 min in HBSS at 37 °C. After the above-mentioned incubations every sample was trypsinized, the cell suspensions were washed twice with ice-cold HBSS and analyzed with a FACScan flow cytometer (BD Biosciences, San Jose, CA, USA). Propidium-iodide (PI) (2 µg/mL) was added to the samples to recognize dead cells and exclude them from the evaluation. FITC-HPBCD was excited by an argon laser at 488 nm and the emission was detected via 530/30 nm band pass filter. Data were analyzed by BDIS Cellquest software (Becton-Dickinson). The cellular fluorescence intensities of the FITC-HPBCD treated cells were compared to the fluorescence of the untreated control cells and expressed as relative cellular fluorescence intensities.

6-deoxy-6-[(5/6)-fluoresceinylthioureido]-(2-hydroxypropyl)-β-cyclodextrin [FITC-HPBCD]
cellular fluorescence after further incubation in HBSS (50 µM 30 min, then 60 min in HBSS): significantly decreased
cellular fluorescence vs untreated control (50 µM, 30 min incubation): significantly increased
